# According to ChEMBL document CHEMBL1201862, “PubChem BioAssay data set” (2004):
#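 The compound was tested at five concentrations on cells cultured in 96-well plates, with a 48-hour exposure period. GI50: concentration for 50% inhibition of growth.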 Active and inactive are the calls of the source. Rule as the data show it: active = GI50 up to about 1.1 µM and inactive = higher.
# Tests used:
# Assay in all cases: NCI tumour cell line growth inhibition, 48 h
# [1] = test system: HCT-116
# [2] = test system: LOX IMVI
# [3] = test system: SK-MEL-2
# [4] = test system: HCC 2998
# [5] = test system: SNB-75
# [6] = test system: MCF7
# [7] = test system: OVCAR-3
# [8] = test system: SF-295
# [9] = test system: OVCAR-4
# [10] = test system: M14
# [11] = test system: PC-3
# [12] = test system: T47D
# [13] = test system: ACHN
# [14] = test system: NCI-H460
# [15] = test system: SW-620
# [16] = test system: RXF 393
# [17] = test system: MDA-MB-435
# [18] = test system: A549
# [19] = test system: SR
# [20] = test system: Malme-3M
# [21] = test system: HCT-15
# [22] = test system: Hs-578T
# [23] = test system: HOP-62
# [24] = test system: HL-60
# [25] = test system: UACC-62
# [26] = test system: TK-10
# [27] = test system: IGROV-1
# [28] = test system: CAKI-1
# [29] = test system: COLO 205
# [30] = test system: CCRF-CEM
# [31] = test system: NCI-H226
# [32] = test system: SNB-19
# [33] = test system: UACC-257
# [34] = test system: SK-OV-3
# [35] = test system: MDA-MB-231
# [36] = test system: SK-MEL-5
# [37] = test system: UO-31
# [38] = test system: KM12
# [39] = test system: DU-145
# [40] = test system: OVCAR-5
# [41] = test system: NCI-H522
# [42] = test system: OVCAR-8
# [43] = test system: HOP-92
# [44] = test system: MDA-N
# [45] = test system: U-251
# [46] = test system: SN12C
# [47] = test system: MOLT-4
# [48] = test system: NCI/ADR-RES
# [49] = test system: K562
# [50] = test system: NCI-H23
# [51] = test system: BT-549
# [52] = test system: SF-268
# [53] = test system: SK-MEL-28
# [54] = test system: EKVX
# [55] = test system: HT-29
# [56] = test system: 786-0
# [57] = test system: RPMI-8226
# [58] = test system: SF-539
smiles,measurement,setting,value
COc1ccc(C(C#N)NC23CC4CC(CC(C4)C2)C3)cc1OC (stereo not drawn),GI50,[1],> 100 µM (inactive)
same,GI50,[2],> 100 µM (inactive)
same,GI50,[3],> 100 µM (inactive)
same,GI50,[4],> 100 µM (inactive)
same,GI50,[5],> 100 µM (inactive)
same,GI50,[6],> 100 µM (inactive)
same,GI50,[7],> 100 µM (inactive)
same,GI50,[8],> 100 µM (inactive)
same,GI50,[9],> 100 µM (inactive)
same,GI50,[10],> 100 µM (inactive)
same,GI50,[11],> 100 µM (inactive)
same,GI50,[12],> 100 µM (inactive)
same,GI50,[13],> 100 µM (inactive)
same,GI50,[14],> 100 µM (inactive)
same,GI50,[15],> 100 µM (inactive)
same,GI50,[16],> 100 µM (inactive)
same,GI50,[17],> 100 µM (inactive)
same,GI50,[18],> 100 µM (inactive)
same,GI50,[19],> 100 µM (inactive)
same,GI50,[20],> 100 µM (inactive)
same,GI50,[21],> 100 µM
same,GI50,[22],> 100 µM (inactive)
same,GI50,[23],> 100 µM (inactive)
same,GI50,[24],> 100 µM (inactive)
same,GI50,[25],> 100 µM (inactive)
same,GI50,[26],> 100 µM (inactive)
same,GI50,[27],> 100 µM (inactive)
same,GI50,[28],> 100 µM (inactive)
same,GI50,[29],> 100 µM (inactive)
same,GI50,[30],> 100 µM (inactive)
same,GI50,[31],79.4 µM (inactive)
same,GI50,[32],> 100 µM (inactive)
same,GI50,[33],> 100 µM (inactive)
same,GI50,[34],> 100 µM (inactive)
same,GI50,[35],> 100 µM (inactive)
same,GI50,[36],> 100 µM (inactive)
same,GI50,[37],84.3 µM (inactive)
same,GI50,[38],> 100 µM (inactive)
same,GI50,[39],> 100 µM (inactive)
same,GI50,[40],> 100 µM (inactive)
same,GI50,[41],> 100 µM (inactive)
same,GI50,[42],> 100 µM (inactive)
same,GI50,[43],96.8 µM (inactive)
same,GI50,[44],> 100 µM (inactive)
same,GI50,[45],> 100 µM (inactive)
same,GI50,[46],> 100 µM (inactive)
same,GI50,[47],> 100 µM (inactive)
same,GI50,[48],> 100 µM (inactive)
same,GI50,[49],> 100 µM (inactive)
same,GI50,[50],> 100 µM (inactive)
same,GI50,[51],> 100 µM (inactive)
same,GI50,[52],> 100 µM (inactive)
same,GI50,[53],> 100 µM (inactive)
same,GI50,[54],> 100 µM (inactive)
same,GI50,[55],> 100 µM (inactive)
same,GI50,[56],> 100 µM (inactive)
same,GI50,[57],> 100 µM (inactive)
same,GI50,[58],> 100 µM (inactive)
